Data published in patent publication US11072616B2, “Cyclic peptides targeting alpha-4-beta-7 integrin” (Zealand Pharma A/S, priority 2015, dated 2021).

What follows are compounds tested against T1, integrin α4β7 (Homo sapiens, UniProt P13612+P26010) (assay: Integrin α4β7—MAdCAM-1 competition assay (ELISA)). Details: ratio a4b1 ELISA IC50 / a4b7 ELISA IC50.
T1 sequence (P13612 34-977 limits assumed): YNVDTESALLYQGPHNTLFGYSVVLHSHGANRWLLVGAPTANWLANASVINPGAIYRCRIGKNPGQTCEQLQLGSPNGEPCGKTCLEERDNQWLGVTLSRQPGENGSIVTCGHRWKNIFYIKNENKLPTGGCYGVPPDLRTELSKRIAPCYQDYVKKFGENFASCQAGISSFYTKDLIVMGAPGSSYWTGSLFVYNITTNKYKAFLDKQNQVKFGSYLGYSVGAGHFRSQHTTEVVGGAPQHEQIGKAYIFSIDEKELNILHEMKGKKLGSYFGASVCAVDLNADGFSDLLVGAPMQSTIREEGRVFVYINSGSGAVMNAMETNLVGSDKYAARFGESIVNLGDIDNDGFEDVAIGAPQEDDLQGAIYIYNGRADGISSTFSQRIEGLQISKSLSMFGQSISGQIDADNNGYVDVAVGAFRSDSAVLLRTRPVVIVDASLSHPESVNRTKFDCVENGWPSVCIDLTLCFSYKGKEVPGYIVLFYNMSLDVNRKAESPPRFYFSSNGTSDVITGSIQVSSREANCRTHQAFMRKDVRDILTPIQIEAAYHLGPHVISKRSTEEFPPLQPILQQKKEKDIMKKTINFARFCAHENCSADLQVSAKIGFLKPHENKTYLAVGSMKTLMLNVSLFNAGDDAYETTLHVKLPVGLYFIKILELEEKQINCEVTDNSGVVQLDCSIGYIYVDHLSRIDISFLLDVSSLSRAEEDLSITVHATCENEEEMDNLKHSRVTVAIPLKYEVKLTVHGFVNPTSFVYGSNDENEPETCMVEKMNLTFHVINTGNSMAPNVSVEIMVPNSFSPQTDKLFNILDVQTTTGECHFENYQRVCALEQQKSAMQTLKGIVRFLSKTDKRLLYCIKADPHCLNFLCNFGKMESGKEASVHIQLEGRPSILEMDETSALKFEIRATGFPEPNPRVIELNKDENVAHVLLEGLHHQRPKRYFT
T1 sequence (P26010 20-723 limits assumed): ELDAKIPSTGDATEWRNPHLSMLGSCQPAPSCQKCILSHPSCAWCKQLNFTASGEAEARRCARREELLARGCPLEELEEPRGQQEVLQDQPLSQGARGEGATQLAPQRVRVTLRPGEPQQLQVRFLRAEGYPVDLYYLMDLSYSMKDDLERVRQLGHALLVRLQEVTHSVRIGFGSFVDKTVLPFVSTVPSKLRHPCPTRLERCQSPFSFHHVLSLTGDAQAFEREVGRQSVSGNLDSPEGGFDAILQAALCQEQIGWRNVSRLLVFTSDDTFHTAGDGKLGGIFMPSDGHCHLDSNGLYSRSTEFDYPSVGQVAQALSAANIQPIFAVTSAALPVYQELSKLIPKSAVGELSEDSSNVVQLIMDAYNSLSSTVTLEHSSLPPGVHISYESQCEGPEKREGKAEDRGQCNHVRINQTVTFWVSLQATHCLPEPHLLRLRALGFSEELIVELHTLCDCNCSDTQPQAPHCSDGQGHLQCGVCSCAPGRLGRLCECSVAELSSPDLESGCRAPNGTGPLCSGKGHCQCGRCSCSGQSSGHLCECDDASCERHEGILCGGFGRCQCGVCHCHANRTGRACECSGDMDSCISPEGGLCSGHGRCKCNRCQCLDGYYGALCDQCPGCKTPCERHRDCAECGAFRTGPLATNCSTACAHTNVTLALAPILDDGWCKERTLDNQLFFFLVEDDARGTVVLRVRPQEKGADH
Format: binding
Method: Integrin α4β7—MAdCAM-1 Competition Assay
The plate was incubated at 4° C. overnight. […] The plate was then incubated for 1 hour at room temperature. The plate was washed three times with wash buffer (50 mM Tris, 100 mM NaCl, 1 mM MnCl2, 0.05% Tween). To each well, 50 μl of compound diluted in assay buffer was added by transfer from a compound serial dilution plate. […] The plate was incubated at room temperature with shaking for 2 hours to reach binding equilibrium. Then the plate was washed three times in wash buffer and 100 μl anti-human IgG Fc specific-horseradish peroxidase (HRP) (Abcam, Ab97225) diluted at 1:2000 in assay buffer was added to each well. The plate was incubated at room temperature for 1 hour under agitation. The plates were then washed three times and 100 μl of 1,3′,5,5′-tetramethylbenxidie (TMB) was then added to each well.

First: CC(C)C[C@@H]1NC(=O)[C@H](Cc2cccc3ccccc23)NC(=O)[C@@H]2CCCN2[C@H](C(=O)NC(C)(C)C)[C@H](C)NC(=O)[C@H]([C@@H](C)O)NC(=O)[C@H](CC(=O)O)NC1=O [Compound 9]
Second: CC(C)C[C@@H]1NC(=O)[C@H](Cc2ccc3ccccc3c2)NC(=O)[C@@H]2CCCN2[C@H](C(=O)NC(C)(C)C)[C@H](C)NC(=O)[C@H]([C@@H](C)O)NC(=O)[C@H](CC(=O)O)NC1=O [Compound 10]
The “Selectivity ELISA” value of the first is higher: 1.7 for the first, 1.3 for the second.

Going from `CC(C)C[C@@H]1NC(=O)C[C@H](CCCCN)NC(=O)[C@H](Cc2ccc(CN)cc2)NC(=O)[C@@H]2CCCN2[C@H](C(=O)NC(C)(C)C)[C@H](C)NC(=O)[C@H](C(C)C)NC(=O)[C@H](CC(=O)O)NC1=O` [Compound 254] to `CC[C@@H](C)[C@@H]1NC(=O)[C@H](CC(=O)O)NC(=O)[C@H](CC(C)C)NC(=O)C[C@H](CCCCN)NC(=O)[C@H](Cc2ccc(CN)cc2)NC(=O)[C@@H]2CCCN2[C@H](C(=O)NC(C)(C)C)[C@H](C)NC1=O` [Compound 285], the “Selectivity ELISA” value falls from 33.0 to 6.2.

First: CC(C)C[C@@H]1NC(=O)c2ccc(-c3ccncc3)c(c2)CNC(=O)[C@H](Cc2ccc(O)cc2)NC(=O)[C@@H]2CCCN2[C@H](C(=O)NC(C)(C)C)[C@H](C)NC(=O)[C@H]([C@@H](C)O)NC(=O)[C@H](CC(=O)O)NC1=O [Compound 337]
Second: CC(C)C[C@@H]1NC(=O)c2cc(cc(-c3ccncc3)c2)CNC(=O)[C@@H]2CCCN2[C@H](C(=O)NC(C)(C)C)[C@H](C)NC(=O)[C@H]([C@@H](C)O)NC(=O)[C@H](CC(=O)O)NC1=O [Compound 362]
The “Selectivity ELISA” value of the first is lower: 2.9 for the first, 5.6 for the second.

Going from `CC(C)C[C@@H]1NC(=O)[C@H](Cc2ccccc2)NC(=O)[C@@H]2C[C@@H](F)CN2[C@H](C(=O)NC(C)(C)C)[C@H](C)NC(=O)[C@H]([C@@H](C)O)NC(=O)[C@H](CC(=O)O)NC1=O` [Compound 45] to `CCO[C@H](C)[C@@H]1NC(=O)[C@H](CC(=O)O)NC(=O)[C@H](CC(C)C)NC(=O)[C@H](Cc2ccccc2)NC(=O)[C@@H]2CCCN2[C@H](C(=O)NC(C)(C)C)[C@H](C)NC1=O` [Compound 41], the “Selectivity ELISA” value falls from 3.2 to 2.5.

First: CC(C)C[C@@H]1NC(=O)CN(C)C(=O)[C@H](Cc2ccc(-c3ccccc3)cc2)NC(=O)[C@@H]2CCCN2[C@H](C(=O)NC(C)(C)C)[C@H](C)NC(=O)[C@H]([C@@H](C)O)NC(=O)[C@H](CC(=O)O)NC1=O [Compound 116]
Second: CC(C)C[C@@H]1NC(=O)CN(C)C(=O)[C@H](Cc2cccc(I)c2)NC(=O)[C@@H]2CCCN2[C@H](C(=O)NC(C)(C)C)[C@H](C)NC(=O)[C@H]([C@@H](C)O)NC(=O)[C@H](CC(=O)O)NC1=O [Compound 106]
The “Selectivity ELISA” value of the first is lower: 8.4 for the first, 18.7 for the second.

Compared with `CC[C@H](C)[C@@H]1NC(=O)[C@H](CC(=O)O)NC(=O)[C@H](CC(C)C)NC(=O)[C@@H](CCCCN)N(C)C(=O)[C@H](Cc2ccc(O)cc2)NC(=O)[C@@H]2CCCN2[C@H](C(=O)NC(C)(C)C)[C@H](C)NC1=O` [Compound 154], `CC(C)C[C@@H]1NC(=O)[C@@H](CCCNC(=N)N)N(C)C(=O)[C@H](Cc2ccc(O)cc2)NC(=O)[C@@H]2CCCN2[C@H](C(=O)NC(C)(C)C)[C@H](C)NC(=O)[C@H]([C@@H](C)O)NC(=O)[C@H](CC(=O)O)NC1=O` [Compound 157] is higher in “Selectivity ELISA” value: 22.8 for the first, 55.3 for the second.

First: CC(C)C[C@@H]1NC(=O)C[C@H](CCCCN)NC[C@H](Cc2ccc(CN)cc2)NC(=O)[C@@H]2CCCN2[C@H](C(=O)NC(C)(C)C)[C@H](C)NC(=O)[C@H]([C@@H](C)O)NC(=O)[C@H](CC(=O)O)NC1=O [Compound 218]
Second: CC[C@H](C)[C@@H]1NC(=O)[C@H](CC(=O)O)NC(=O)[C@H](CC(C)C)NC(=O)C[C@H](CCCCN)NC(=O)[C@@H](Cc2ccc(CN)cc2)NC(=O)[C@@H]2CCCN2[C@H](C(=O)NC(C)(C)C)[C@H](C)NC1=O [Compound 253]
The “Selectivity ELISA” value of the first is higher: 16.5 for the first, 15.6 for the second.

Going from `CC(C)C[C@@H]1NC(=O)[C@H]2C[C@@H](O)CN2C(=O)[C@H](Cc2ccc(O)cc2)NC(=O)[C@@H]2CCCN2[C@H](C(=O)NC(C)(C)C)[C@H](C)NC(=O)[C@H]([C@@H](C)O)NC(=O)[C@H](CC(=O)O)NC1=O` [Compound 141] to `CC(C)C[C@@H]1NC(=O)[C@H]2C[C@H](O)CN2C(=O)[C@H](Cc2ccc(CN)cc2)NC(=O)[C@@H]2CCCN2[C@H](C(=O)NC(C)(C)C)[C@H](C)NC(=O)[C@H]([C@@H](C)O)NC(=O)[C@H](CC(=O)O)NC1=O` [Compound 152], the “Selectivity ELISA” value rises from 2.0 to 13.2.

First: CC(C)C[C@@H]1NC(=O)[C@@H]2CCN2C(=O)C[C@H](CCCCN)NC(=O)[C@@H]2CCCN2[C@H](C(=O)NC(C)(C)C)[C@H](C)NC(=O)[C@H]([C@@H](C)O)NC(=O)[C@H](CC(=O)O)NC1=O [Compound 319]
Second: CC(C)C[C@@H]1NC(=O)[C@@H](CCCN(C)C)NC(=O)[C@@H]2CCCN2[C@H](C(=O)NC(C)(C)C)[C@H](C)NC(=O)[C@H]([C@@H](C)O)NC(=O)[C@H](CC(=O)O)NC1=O [Compound 83]
The “Selectivity ELISA” value of the first is lower: 4.8 for the first, 6.9 for the second.

Going from `CC(C)C[C@@H]1NC(=O)[C@H]2CCCCN2C(=O)[C@H](Cc2ccccc2I)NC(=O)[C@@H]2CCCN2[C@H](C(=O)NC(C)(C)C)[C@H](C)NC(=O)[C@H]([C@@H](C)O)NC(=O)[C@H](CC(=O)O)NC1=O` [Compound 133] to `COc1ccc(-c2ccccc2C[C@@H]2NC(=O)[C@@H]3CCCN3[C@H](C(=O)NC(C)(C)C)[C@H](C)NC(=O)[C@H]([C@@H](C)O)NC(=O)[C@H](CC(=O)O)NC(=O)[C@H](CC(C)C)NC(=O)[C@H]3CCCCN3C2=O)cc1` [Compound 137], the “Selectivity ELISA” value rises from 5.3 to 7.8.

First: CC(C)C[C@@H]1NC(=O)CN(C)C(=O)[C@H](Cc2csc(-c3ccccn3)n2)NC(=O)[C@@H]2CCCN2[C@H](C(=O)NC(C)(C)C)[C@H](C)NC(=O)[C@H]([C@@H](C)O)NC(=O)[C@H](CC(=O)O)NC1=O [Compound 179]
Second: CC(C)C[C@@H]1NC(=O)[C@H]2c3ccccc3CCN2C(=O)[C@@H]2CCCN2[C@H](C(=O)NC(C)(C)C)[C@H](C)NC(=O)[C@H]([C@@H](C)O)NC(=O)[C@H](CC(=O)O)NC1=O [Compound 98]
The “Selectivity ELISA” value of the first is higher: 15.2 for the first, 2.7 for the second.

Compared with `CC(C)C[C@@H]1NC(=O)[C@H](CC2CCCCC2)NC(=O)[C@@H]2CCCN2[C@H](C(=O)NC(C)(C)C)[C@H](C)NC(=O)[C@H]([C@@H](C)O)NC(=O)[C@H](CC(=O)O)NC1=O` [Compound 7], `CC[C@H](C)[C@@H]1NC(=O)[C@H](CC(=O)O)NC(=O)[C@H](CC(C)C)NC(=O)[C@H](Cc2c[nH]c3ccccc23)NC(=O)[C@@H]2CCCN2[C@H](C(=O)NC(C)(C)C)[C@H](C)NC1=O` [Compound 8] is lower in “Selectivity ELISA” value: 1.6 for the first, 0.9 for the second.

Compared with `CC(C)C[C@@H]1NC(=O)C[C@H](CCCCN)NC(=O)[C@H](Cc2ccccc2-c2ccc(N3CCNCC3)cc2)NC(=O)[C@@H]2CCCN2[C@H](C(=O)NC(C)(C)C)[C@H](C)NC(=O)[C@H]([C@@H](C)O)NC(=O)[C@H](CC(=O)O)NC1=O` [Compound 271], `Cc1cccc(C)c1-c1ccc(C[C@@H]2NC(=O)[C@@H]3CCCN3[C@H](C(=O)NC(C)(C)C)[C@H](C)NC(=O)[C@H]([C@@H](C)O)NC(=O)[C@H](CC(=O)O)NC(=O)[C@H](CC(C)C)NC(=O)C[C@H](CCCCN)NC2=O)cc1` [Compound 268] is lower in “Selectivity ELISA” value: 34.6 for the first, 24.6 for the second.
